Article PMC11189555, “Aryl amino acetamides prevent Plasmodium falciparum ring development via targeting the lipid-transfer protein PfSTART1” (Nature Communications, 2024)
“And” between values parts separate entries of the source, which are not always exact repeats. Equal values may be shown once.

Tests used:
[1] = test system: 3D7, SLI- and CR- WT, N309K, N330K parasites; assay: Parasite growth over 72 h in the presence of GlcN (LDH); assay type: cell-based, Plasmodium falciparum; details: for Growth over 72 h, 0.25 mM / 0 mM / Growth over 72 h, 2.5 mM / 0 mM: biological replicates 1-4; for Growth over 72 h (mean of raw readings) / Growth over 72 h normalised to 0 mM GlcN (= 100): biological replicates 1-3; for Growth over 72 h (raw reading): biological replicates 1-3, DMSO data of M833 and W991 sets
Protocol: thereafter called SLI-WT, SLI-N309K and SLI-N330K). gDNA was extracted and a PCR was conducted to check for correct integration using primers START_5’UTR.F and START_Seq.R (Table S2); the same PCR on 3D7 gDNA was used as a control, as no bands should be observed in the 3D7 samples. (B) The sequencing of the PCR […]
and that SLI-N309K and SLI-N330K contain the correct mutations. (C) Growth of 3D7, SLI-WT, -N309K or -N330K over 72 h in the presence of 0, 0.25 or 2.5 mM GlcN was measured with an LDH assay. Growth was normalised to the 0 mM GlcN condition. n=4 biological replicates. Ordinary one-way ANOVA with Dunnett’s multiple comparison test (comparison to the 0 mM condition). **: p<0.005. ***: p<0.0005. ****: p<0.0001. (D) Similar to SLI parasites, CRISPR transfectant parasites were cloned:
CR-WT clone D2, CR-N309K clone C10 and CR-N330K clone B2, thereafter called CR-WT, CR-N309K and CR-N330K. A PCR was conducted to check for correct integration using primers START_5’UTR.F and START_IntR1; 3D7 gDNA was used […]
wild-type version of pfstart1, and that CR-N309K and CR-N330K contain the correct mutations. (F) Growth of 3D7, CR-WT, -N309K or -N330K over 72 h in the presence of 0, 0.25 or 2.5 mM GlcN was measured by LDH assay (same as (C); n=6 biological replicates). Source data are provided as a Source Data file. […]
and compound 4. Note that M-833 was first purchased from MolPort (MolPort -002-267-916) then made in-house at WEHI: the differences observed in EC50s across experiments are attributed to the different batches of M -833. For some experiments, 0, 0.25 or 2.5 mM of glucosamine (GlcN) was also added. Experiments were set up in technical duplicates or triplicates. Following a freeze -thaw cycle, lactate dehydrogenase (LDH) activity was assessed as an indicator of parasite growt h 5. 30 μL of parasite culture was incubated for 30 min in the dark with 75 μL Malstat mixture (0.1 M Tris pH 9.0, 20 g/L lactic acid, pH 7.5, 0.2% Triton-X100, 0.5 g/L acetylpyridine adenine dinucleotide (APAD, Sigma), 200 μg/mL nitroblue tetrazolium (NBT; Sigma), 1 μg/mL phenozine ethosulfate (PES; Sigma)). Absorbance was then measured at 650 nm, transformed using the formula below, plotted against the logarithm of the concentrations, and a non-linear regression (log(inhibitor) vs. response, variable slope) was calculated using GraphPad Prism to assess the half-inhibitory […]
Growth inhibition % = (1 − average(sample)− average(uRBC)) ∗ 100 […]
The DMSO samples were also used to assess growth of parasite in the presence of 0.25 and 2.5 mM GlcN (normalised by DMSO in 0 mM GlcN). […]

[2] = test system: P. falciparum oocysts in mosquito midguts; assay: Standard membrane feeding assay: oocysts in mosquito midguts (Walter and Eliza Hall Institute); assay type: in vivo, Plasmodium falciparum; details: for Oocyst counts from individual mosquitoes: 30 mosquitoes dissected
Protocol: These assays were performed at the Walter and Eliza Hall Institute and at the London School of Hygiene and Tropical Medicine using slightly different approaches which are described in the Supplementary Information. […]
were aspirated into a cup and anesthetized by cooling to 4 °C until immobilized and kept on ice for the dissection. The mosquitoes were then dissected as previously described 12 and collected midguts were maintained in 1X PBS (Gibco) until they were stained with mercurochrome for 20 mins. […]

[3] = CR-N309K parasites, 0.25 mM GlcN
[4] = CR-N309K parasites, 2.5 mM GlcN
[5] = CR-N330K parasites, 0.25 mM GlcN
[6] = CR-N330K parasites, 2.5 mM GlcN

For `N[C@H]1C(O)O[C@H](CO)[C@@H](O)[C@@H]1O` (stereo partly shown) [GlcN, glucosamine], the “Growth over 72 h, 0.25 mM / 0 mM” value ([1]; 3D7, 0.25 mM GlcN) was 98.6386 and 100.075 and 99.6504 and 92.7264, the “Growth over 72 h, 2.5 mM / 0 mM” value ([1]; 3D7, 2.5 mM GlcN) was 77.3282 and 91.4546 and 81.2488 and 87.4334 and the reduced growth ([1]; 3D7, 2.5 mM GlcN, 72 h) was ~ 5%. The “Growth over 72 h (mean of raw readings)” value ([1]; 3D7 parasites, 0.25 mM GlcN) was 0.1623 and 0.1668 and 0.4453 and 0.6687 and 0.4936 and 0.5657, the “Growth over 72 h normalised to 0 mM GlcN (= 100)” value (from here on “Growth over 72 h normalised”) ([1]; 3D7 parasites, 0.25 mM GlcN) was 99.2357 and 96.4441 and 83.2336 and 124.534 and 89.0493 and 116.399 and the “Growth over 72 h (raw reading)” value ([1]; 3D7 parasites, 0.25 mM GlcN) was 0.1683 and 0.1751 and 0.4506 and 0.6702 and 0.5044 and 0.558 and 0.1563 and 0.1585 and 0.44 and 0.6673 and 0.4828 and 0.5734. For the same compound, the “Growth over 72 h (mean of raw readings)” value ([1]; 3D7 parasites, 2.5 mM GlcN) was 0.1303 and 0.133 and 0.3936 and 0.3428 and 0.669 and 0.5661, the “Growth over 72 h normalised” value ([1]; 3D7 parasites, 2.5 mM GlcN) was 79.6393 and 76.9008 and 73.5607 and 61.8528 and 124.572 and 116.481 and the “Growth over 72 h (raw reading)” value ([1]; 3D7 parasites, 2.5 mM GlcN) was 0.137 and 0.138 and 0.4268 and 0.3683 and 0.6835 and 0.563 and 0.1235 and 0.128 and 0.3603 and 0.3174 and 0.6544 and 0.5692. The “Growth over 72 h (mean of raw readings)” value [1, 3] was 0.127 and 0.1406 and 0.5399 and 0.6825 and 0.5806 and 0.5768, the “Growth over 72 h normalised” value [1, 3] was 83.6627 and 84.6177 and 96.1271 and 111.164 and 88.2706 and 96.8194 and the “Growth over 72 h (raw reading)” value [1, 3] was 0.13 and 0.1405 and 0.5297 and 0.694 and 0.5709 and 0.5788 and 0.124 and 0.1406 and 0.55 and 0.6711 and 0.5903 and 0.5749. For the same compound, the “Growth over 72 h (mean of raw readings)” value [1, 4] was 0.0842 and 0.08195 and 0.3029 and 0.2482 and 0.3611 and 0.3044, the “Growth over 72 h normalised” value [1, 4] was 55.4677 and 49.3377 and 53.9263 and 37.7271 and 58.8111 and 51.0826 and the “Growth over 72 h (raw reading)” value [1, 4] was 0.0834 (2×) and 0.3049 and 0.2428 and 0.3713 and 0.3087 and 0.085 and 0.0805 and 0.3008 and 0.2535 and 0.3509 and 0.3. For the same compound, the “growth less than in the absence of GlcN” value ([1]; CR-N309K, 2.5 mM GlcN, 72 h) was 50%, the “Growth over 72 h (mean of raw readings)” value [1, 5] was 0.2349 and 0.2489 and 0.3654 and 0.7776 and 0.3572 and 0.7298 and the “Growth over 72 h normalised” value [1, 5] was 94.757 and 83.1329 and 83.9922 and 102.755 and 71.8539 and 97.5734. For the same compound, the “Growth over 72 h (raw reading)” value [1, 5] was 0.2498 and 0.2614 and 0.3895 and 0.7636 and 0.4102 and 0.7252 and 0.2201 and 0.2364 and 0.3414 and 0.7917 and 0.3041 and 0.7344, the “Growth over 72 h (mean of raw readings)” value [1, 6] was 0.1315 and 0.1328 and 0.1893 and 0.172 and 0.7048 and 0.6593 and the “Growth over 72 h normalised” value [1, 6] was 53.0349 and 44.3554 and 43.5072 and 34.6042 and 93.1356 and 88.1543. For the same compound, the “Growth over 72 h (raw reading)” value [1, 6] was 0.1385 and 0.1375 and 0.1953 and 0.1767 and 0.7177 and 0.6721 and 0.1245 and 0.1281 and 0.1833 and 0.1673 and 0.692 and 0.6466, the “Growth over 72 h (mean of raw readings)” value ([1]; CR-WT parasites, 0.25 mM GlcN) was 0.2131 and 0.2403 and 0.4884 and 0.5805 and 0.5445 and 0.4768 and the “Growth over 72 h normalised” value ([1]; CR-WT parasites, 0.25 mM GlcN) was 94.7322 and 91.6651 and 102.262 and 415.2 and 101.567 and 345.382. The “Growth over 72 h (raw reading)” value ([1]; CR-WT parasites, 0.25 mM GlcN) was 0.2167 and 0.241 and 0.4948 and 0.5777 and 0.5446 and 0.4838 and 0.2095 and 0.2396 and 0.4819 and 0.5832 and 0.5444 and 0.4698, the “Growth over 72 h (mean of raw readings)” value ([1]; CR-WT parasites, 2.5 mM GlcN) was 0.1497 and 0.1625 and 0.3987 and 0.36 and 0.5094 and 0.4461 and the “Growth over 72 h normalised” value ([1]; CR-WT parasites, 2.5 mM GlcN) was 66.5703 and 61.9874 and 83.4991 and 67.1517 and 364.413 and 323.18. For the same compound, the “Growth over 72 h (raw reading)” value ([1]; CR-WT parasites, 2.5 mM GlcN) was 0.1508 and 0.1623 and 0.3842 and 0.3527 and 0.5062 and 0.4479 and 0.1487 and 0.1627 and 0.4133 and 0.3673 and 0.5127 and 0.4444, the “Growth over 72 h, 0.25 mM / 0 mM” value ([1]; SLI-N309K, 0.25 mM GlcN) was 84.2717 and 93.806 and 99.7943 and 79.4202 and the “Growth over 72 h, 2.5 mM / 0 mM” value ([1]; SLI-N309K, 2.5 mM GlcN) was 52.5042 and 74.3497 and 80.6954 and 57.9574. The “Growth over 72 h, 0.25 mM / 0 mM” value ([1]; SLI-N330K, 0.25 mM GlcN) was 88.793 and 84.0431 and 73.2682 and 86.1624, the “Growth over 72 h, 2.5 mM / 0 mM” value ([1]; SLI-N330K, 2.5 mM GlcN) was 52.5716 and 59.0221 and 51.4095 and 62.9405 and the “Growth over 72 h, 0.25 mM / 0 mM” value ([1]; SLI-WT, 0.25 mM GlcN) was 108.267 and 89.5536 and 80.5452 and 87.3943. The “Growth over 72 h, 2.5 mM / 0 mM” value ([1]; SLI-WT, 2.5 mM GlcN) was 78.3352 and 62.7379 and 46.4436 and 59.8798 and the “growth less than in the absence of GlcN” value ([1]; most SLI- and CR- lines, 2.5 mM GlcN, 72 h) was “approximately 40%”.
`CC(C)(Nc1ccc(Cl)c(S(=O)(=O)N2CCOCC2)c1)C(=O)Nc1ccc(F)c(Cl)c1` [W-991] was tested, and the “reduction of the number of oocysts compared to untreated control” value ([2]; 100 nM W-991, oocysts counted 7 days after feeding) was > 20 fold, the “Oocyst counts from individual mosquitoes” value ([2]; W-991 1 nM) was 38 and 56 and 49 and 30 and 0 and 4 and 7 and 9 and 6 and 8 and 12 and 35 and 22 and 20 and 13 and 50 and 15 and 10 and 31 and 18 and 11 and 24 and 1 and the “Oocyst counts from individual mosquitoes” value ([2]; W-991 50 nM) was 9 and 3 and 23 and 27 and 20 and 4 and 12 and 0 and 7 and 10 and 2 and 31 and 22 and 1 and 17. The “Oocyst counts from individual mosquitoes” value ([2]; W-991 100 nM) was 6 and 0 and 2 and 16 and 24 and 8 and 11 and 5 and 1 and 7 and 12 and the “oocysts per mosquito” value ([2]; W-991 1, 50, 100 nM, day 7 after feeding) was “dose-dependent decrease in oocysts per mosquito”.
